Laboratory results as given in publication PMC9501369, “Evaluation of Novel Inhibitors of Tryptophan Dioxygenases for Enzyme and Species Selectivity Using Engineered Tumour Cell Lines Expressing Either Murine or Human IDO1 or TDO2” (Pharmaceuticals, 2022).
Where two headings read alike, the source gives them in different places.

Columns and labels:
human IDO1 [1] = target: T1, human IDO1 (Homo sapiens, UniProt P14902); assay: LLTC-hIDO1 cell-based assay (kynurenine in supernatant); parameters: host or cells: murine LLTC Lewis lung carcinoma cells
From the text: (§1) Transfected LLTC cells constitutively expressing human IDO1 (LLTC-hIDO1) were established as previously described, by transfecting wild-type LLTC cells with pAd/CMV/V5-DEST with cDNA for human IDO1 (Invitrogen, Carlsbad, CA, USA). LLTC-mIDO1 cells that constitutive express murine IDO1 were established by transfection of wild-type LLTC with cDNA for murine IDO1 (courtesy of Dr Benoit van den Eynde). GL261 cells were similarly transfected to produce a line constitutively expressing human IDO1 (GL261-hIDO1), and a GL261-hTDO2 line expressing the human TDO2 gene (Source BioScience, Nottingham, England). Stable transfectants were maintained in αMEM with 10% FCS and selection antibiotics (2 µM puromycin for lines transfected with human dioxygenase genes, or 5 µg/mL blastocidin for LLTC-mIDO1 cells).
(§2) For the cell-based assays with engineered TDO2-expressing lines (10^4 cells per well), the α-MEM culture media was additionally supplemented with […] L-tryptophan. In brief, cells were cultured 24 h with the test compounds, and then supernatants from each well were transferred into fresh, flat-bottomed 96-well plates, mixed with trichloroacetic acid (10% final concentration) and incubated for 20 min, at 60 °C. Plates were centrifuged and supernatants transferred and mixed 1:1 with 4-(dimethylamino)benzaldehyde and the absorbance read at 480 nm as previously described. The inhibition of cellular enzyme activity at each drug concentration was calculated as a percent of control wells with no added drug.

human TDO2 = target: T2, human TDO2 (Homo sapiens, UniProt P48775); assay: GL261-hTDO2 cell-based assay (kynurenine in supernatant); details: Table 2; for IC50 Ratio hTDO2/hIDO1: GL261-hTDO2 IC50 / LLTC-hIDO1 IC50, ^−1 marks inverse ratio; for IC50: GL261-hTDO2 cells
T2 construct: host or cells: murine GL261 glioma cells
Protocol: Each compound was tested in cell-based assays using LLTC-hIDO1 and GL261-hTDO2, respectively, for their potency at inhibiting human IDO1 and human TDO2.
as §1, §2

murine IDO1 = target: T3, murine IDO1 (Mus musculus, UniProt P28776); assay: LLTC-mIDO1 cell-based assay (kynurenine in supernatant)
T3 construct: expressed in transfected cells; host or cells: murine LLTC Lewis lung carcinoma cells
From the text: as §1, §2

GL261-hIDO1 tumours [2] = assay: K:T ratios in plasma and tumour of mice with GL261-hIDO1 tumours after single ip dose; format: in vivo, C57Bl/6 mice; details: single ip 150 mg/kg
Protocol: C57Bl/6 mice were inoculated subcutaneously with 10^6 GL261-WT or GL261-hIDO1 cells in […] PBS into the left flank. […] In brief, 100µL of each plasma sample was mixed with 100µL of potassium phosphate buffer (0.05 M, pH 6) containing 100µM of the internal standard, 3-Nitro-L-Tyrosine (Sigma-Aldred, St Louis, MO, USA). Twenty-five µL of 2 mol/L trichloroacetic acid (Merck) was added to precipitate the proteins, and the samples were then vortexed and centrifuged at 12,000× g for 6 min, at room temperature. Standard calibration curves made from serial dilution of tryptophan (Sigma) and L-kynurenine (Sigma) were prepared with the same treatment as the samples. All supernatants collected after centrifugation were transferred into micro sampling vials and analysed for kynurenine and tryptophan as previously described by HPLC (HP Agilent 1200, Agilent Technologies, Walbronn, Germany). Kynurenine and tryptophan concentrations in samples were calculated from the standard calibration curves and the kynurenine to tryptophan ratio (K:T) was calculated by dividing the concentration of kynurenine by the tryptophan concentration.

in vivo = details: C57Bl/6, mouse, ip
human IDO1 [3] = target: T1, human IDO1; assay: cell-free recombinant hIDO1 enzymatic assay; format: biochemical; details: Figure 4, read-out: IC50 (enzyme assay)
GL261-hIDO1 tumours [4] = assay: Growth of subcutaneous GL261-hIDO1 tumours under daily ip treatment; format: in vivo; details: daily ip 75, 100 and 150 mg/kg, C57Bl/6 mice
Protocol: C57Bl/6 mice bred at the Vernon Jansen Unit, University of Auckland were used as the hosts for the growth of GL261 and LLTC tumours. Unless stated, first-generation tumours, initiated by injecting 10^6 cells in 100 µL medium subcutaneously into the left flank of each mouse were used for experiments. […] Tumours were measured thrice weekly, and tumour volumes were calculated as 0.52a^2b, where a and b are the minor and major axes of the tumour.
C57Bl/6 mice were inoculated subcutaneously into the left flank with 10^6 GL261-hIDO1 cells and were randomised into treatment groups 6 days after inoculation when the tumours were approximately 3 × 3 mm in size. Mice with tumours were treated daily with ip injection of the inhibitor at a tolerated non-toxic dose, dissolved to the required concentration in 50 µL DMSO per mouse. Control groups received only DMSO (≤50 µL).

[5] = Table 2, LLTC-hIDO1 cells, read-out: IC50 (µM) LLTC-hIDO1
[6] = Table 1, LLTC-hIDO1 cells, 24 h culture with compound, read-out: IC50 (µM) LLTC-hIDO1
[7] = Table 1, LLTC-mIDO1 cells, 24 h culture with compound, read-out: IC50 (µM) LLTC-mIDO1
[8] = LLTC-hIDO1 cell assay vs recombinant hIDO1 enzymatic assay
[9] = mice with 16-day GL261-hIDO1 tumours

T2 sequence (P48775 whole entry): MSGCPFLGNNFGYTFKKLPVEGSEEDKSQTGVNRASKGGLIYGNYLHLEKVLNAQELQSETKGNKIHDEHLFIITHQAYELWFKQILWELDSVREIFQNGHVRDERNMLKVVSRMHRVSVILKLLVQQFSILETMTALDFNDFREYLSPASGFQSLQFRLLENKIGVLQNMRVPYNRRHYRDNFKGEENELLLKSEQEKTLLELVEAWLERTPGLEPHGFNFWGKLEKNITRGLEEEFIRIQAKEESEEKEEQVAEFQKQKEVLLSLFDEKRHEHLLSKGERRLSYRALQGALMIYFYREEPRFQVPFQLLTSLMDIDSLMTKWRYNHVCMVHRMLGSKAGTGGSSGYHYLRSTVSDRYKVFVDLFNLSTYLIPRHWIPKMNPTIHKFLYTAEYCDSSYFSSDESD
T1 sequence (P14902 whole entry): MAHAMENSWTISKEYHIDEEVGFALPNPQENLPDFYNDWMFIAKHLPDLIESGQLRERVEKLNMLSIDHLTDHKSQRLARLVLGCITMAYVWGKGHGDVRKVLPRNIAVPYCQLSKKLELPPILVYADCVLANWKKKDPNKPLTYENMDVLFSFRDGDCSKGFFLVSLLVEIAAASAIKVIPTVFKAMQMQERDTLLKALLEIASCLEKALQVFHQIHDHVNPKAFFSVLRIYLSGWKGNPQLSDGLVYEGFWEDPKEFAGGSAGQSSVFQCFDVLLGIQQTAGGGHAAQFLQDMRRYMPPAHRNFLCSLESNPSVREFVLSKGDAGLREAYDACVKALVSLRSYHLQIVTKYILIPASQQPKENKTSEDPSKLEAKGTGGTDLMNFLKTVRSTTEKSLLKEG
T3 sequence (P28776 whole entry): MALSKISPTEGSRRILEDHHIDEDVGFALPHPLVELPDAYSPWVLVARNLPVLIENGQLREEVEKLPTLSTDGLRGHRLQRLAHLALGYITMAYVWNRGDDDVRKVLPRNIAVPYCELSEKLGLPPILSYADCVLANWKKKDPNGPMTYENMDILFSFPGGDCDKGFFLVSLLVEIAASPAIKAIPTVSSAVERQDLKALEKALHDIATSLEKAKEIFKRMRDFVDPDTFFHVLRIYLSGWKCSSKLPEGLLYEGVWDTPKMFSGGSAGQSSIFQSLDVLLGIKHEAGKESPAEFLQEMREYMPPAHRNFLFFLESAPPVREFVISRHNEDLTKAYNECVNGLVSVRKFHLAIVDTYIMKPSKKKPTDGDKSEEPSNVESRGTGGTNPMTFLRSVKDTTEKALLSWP

SMILES	IC50 (human IDO1 [1]; [5]) [µM]	IC50 (human TDO2) [µM]	IC50 (human IDO1 [1]; [6]) [µM]	IC50 (murine IDO1; [7]) [µM]	further results
C/C(=N\Nc1ccc(F)cc1F)c1cccs1 [Compound W-0079326]			10.1	13.1	
Fc1ccc(N/N=C/c2sc(N3CCOCC3)nc2-c2ccccc2)cc1 [Compound W-0079497]			3.45	3.03	
CC1=C/C(=N\Nc2ccccc2Cl)CC1 [Compound W-0079433]			5.33	13.3	
COc1cc(/C(C)=N/Nc2ccc(Cl)c(Cl)c2)cc(OC)c1OC [Compound W-0079409]			6.74	16	
C/C(=N\Nc1ccc(F)cc1F)c1cc2ccccc2o1 [Compound W-0079399]			41.2	25	
N#Cc1c(NC(=O)c2ccccc2)sc(N)c1-c1cccs1 [Compound W-0003891]			2.56	22.5	
Cc1nc2onc(N)c2c(C)c1Cl [Compound W-0019482]	0.09	15.2	0.08	0.01	K:T ratio in the tumour, returned to % of that in mice without treatment (GL261-hIDO1 tumours [2]; GL261-hIDO1 tumours, time point not given): approximately 50%; K:T ratio in plasma (GL261-hIDO1 tumours [2]; [9]): reduced within an hour; K:T ratio in tumour (GL261-hIDO1 tumours [2]; [9]): reduced within an hour; MTD (in vivo): 150 mg/kg; IC50 (human IDO1 [1]; Figure 4, LLTC-hIDO1 cell-based assay, read-out: IC50 (cell assay)): 0.0661 µM; fold more potent in the cell-based assay compared to activity against the enzyme (human IDO1 [1]; [8]): 30 fold; IC50 Ratio hTDO2/hIDO1 (human TDO2): 169; IC50 (human IDO1 [3]): 1.85 µM; growth of subcutaneous GL261-hIDO1 tumours (GL261-hIDO1 tumours [4]): delayed the growth
C/C(=N\Nc1ccc(F)cc1F)c1ccc(N2CCOCC2)cc1 [Compound W-0079400]			20.8	12.9	
Fc1ccc(N/N=C2/CCCc3ccccc32)c(F)c1 [Compound W-0125931]			6.04	5.83	
CCn1cc(-c2c(N)sc(NC(=O)c3ccccc3)c2C#N)c(C)n1 [Compound W-0020339]			11.6	50.5	
O=C(O)c1coc2c1C(=NNc1ccccc1)CCC2 [Compound W-0011387]			3.19	1.32	
CC(C)N1CCC(=NNc2ccc(Cl)c(Cl)c2)CC1 [Compound W-0079407]			3.39	1.87	
Cc1ccc(C)c(C2=Nn3c(COc4ccccc4F)nnc3SC2C)c1 (stereo not drawn) [Compound W-0080549]			31.6	70.7	
NC(=O)SCC(=O)Nc1ccc(F)cc1 [Compound W-0013201]			20.1	20	
c1ccc2c(c1)Nc1ccccc1O2 [Compound W-0020227]					IC50 (human IDO1 [1]): 1.52 µM; IC50 (murine IDO1): 3.1 µM
C/C(=N\Nc1ccc(C)c(Cl)c1)c1ccncc1 [Compound W-0079341]			17.1	10.3	
Cc1ccc(N/N=C2/CCCNC2=O)cc1 [Compound W-0011320]			17.9	11.3	

Further lines, with some results ahead:

IC50 (human IDO1 [1]; [5]) [µM]	IC50 (human TDO2) [µM]	IC50 (human IDO1 [1]; [6]) [µM]	IC50 (murine IDO1; [7]) [µM]	SMILES	further results
1.14	1.81			Nc1noc2nc(C(F)(F)F)ccc12 [SN37159]	IC50 Ratio hTDO2/hIDO1 (human TDO2): 1.6
0.64	0.11			Nc1noc2ncc(I)cc12 [SN36896]	
0.66	0.08			Nc1noc2ncc(Br)cc12 [SN36458]	
	6.08			Nc1nonc1/C(=N\O)Nc1ccc(F)c(Cl)c1 [INCB14934, reference compound]	titration curve in the cell-assay compared to that in the enzymatic assay (human IDO1 [1]; [8]): very similar; IC50 (murine IDO1): 0.12 µM
0.7	0.11			Nc1noc2ncc(Cl)cc12 [SN36499]	
0.92	0.68			Nc1noc2ncc([N+](=O)[O-])cc12 [SN37318]	
8.67	1.07			Nc1noc2ncncc12 [SN36704]	
2.11	1.58			Nc1noc2nc3ccccc3cc12 [SN36500]	
2.06	175			Cc1nc2onc(NC(=O)Nc3ccccc3)c2c(C)c1Cl [SN37705]	IC50 Ratio hTDO2/hIDO1 (human TDO2): 85
0.3	14.1			Cc1nc2onc(N)c2c(C)c1Br [SN36494]	IC50 Ratio hTDO2/hIDO1 (human TDO2): 47
8.88	10.7			COc1ccc2c(N)noc2n1 [SN37057]	IC50 Ratio hTDO2/hIDO1 (human TDO2): 1.2
0.06	4.14			Cc1cc(Cl)nc2onc(N)c12 [SN37313]	IC50 Ratio hTDO2/hIDO1 (human TDO2): 67
4.38	37			Nc1noc2nc(-c3ccccc3)ccc12 [SN36796]	IC50 Ratio hTDO2/hIDO1 (human TDO2): 8
